Consider 15 compounds from patent publication US20090306133A1, “New Acetyl Coenzyme A Carboxylase (ACC) Inhibitors And Uses In Treatments Of Obesity And Diabetes Mellitus - 087” (ASTRAZENECA AB, priority 2007, published 2009).

Test [1] deals with Human recombinant Acetyl-CoA Carboxylase 2 (ACC2) (Homo sapiens, UniProt O00763). Kind of test: Assay X: ACC2 inhibition, inorganic phosphate (malachite green). It is filed as biochemical. As to conditions: Assay X: 37° C., 1.5 h, 5 min pre-incubation. The gist of the method:
(§1)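 Human recombinant enzyme pre-incubated 5 min with compound before substrate addition; reaction run 1.5 h, then inorganic phosphate detected by malachite green absorbance at 660 nm. Ten concentrations tested in triplicate; apparent IC50 from four-parameter curve fit.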

The target in test [2] is Human recombinant Acetyl-CoA Carboxylase 1 (ACC1) (Homo sapiens, UniProt Q13085). Briefly: Assay X: ACC1 inhibition, inorganic phosphate (malachite green). It is filed as biochemical. The conditions noted are these: Assay X: 37° C., 1.5 h, 5 min pre-incubation. The gist of the method: as §1

Sequence of Human recombinant Acetyl-CoA Carboxylase 2 (ACC2) (O00763 whole entry): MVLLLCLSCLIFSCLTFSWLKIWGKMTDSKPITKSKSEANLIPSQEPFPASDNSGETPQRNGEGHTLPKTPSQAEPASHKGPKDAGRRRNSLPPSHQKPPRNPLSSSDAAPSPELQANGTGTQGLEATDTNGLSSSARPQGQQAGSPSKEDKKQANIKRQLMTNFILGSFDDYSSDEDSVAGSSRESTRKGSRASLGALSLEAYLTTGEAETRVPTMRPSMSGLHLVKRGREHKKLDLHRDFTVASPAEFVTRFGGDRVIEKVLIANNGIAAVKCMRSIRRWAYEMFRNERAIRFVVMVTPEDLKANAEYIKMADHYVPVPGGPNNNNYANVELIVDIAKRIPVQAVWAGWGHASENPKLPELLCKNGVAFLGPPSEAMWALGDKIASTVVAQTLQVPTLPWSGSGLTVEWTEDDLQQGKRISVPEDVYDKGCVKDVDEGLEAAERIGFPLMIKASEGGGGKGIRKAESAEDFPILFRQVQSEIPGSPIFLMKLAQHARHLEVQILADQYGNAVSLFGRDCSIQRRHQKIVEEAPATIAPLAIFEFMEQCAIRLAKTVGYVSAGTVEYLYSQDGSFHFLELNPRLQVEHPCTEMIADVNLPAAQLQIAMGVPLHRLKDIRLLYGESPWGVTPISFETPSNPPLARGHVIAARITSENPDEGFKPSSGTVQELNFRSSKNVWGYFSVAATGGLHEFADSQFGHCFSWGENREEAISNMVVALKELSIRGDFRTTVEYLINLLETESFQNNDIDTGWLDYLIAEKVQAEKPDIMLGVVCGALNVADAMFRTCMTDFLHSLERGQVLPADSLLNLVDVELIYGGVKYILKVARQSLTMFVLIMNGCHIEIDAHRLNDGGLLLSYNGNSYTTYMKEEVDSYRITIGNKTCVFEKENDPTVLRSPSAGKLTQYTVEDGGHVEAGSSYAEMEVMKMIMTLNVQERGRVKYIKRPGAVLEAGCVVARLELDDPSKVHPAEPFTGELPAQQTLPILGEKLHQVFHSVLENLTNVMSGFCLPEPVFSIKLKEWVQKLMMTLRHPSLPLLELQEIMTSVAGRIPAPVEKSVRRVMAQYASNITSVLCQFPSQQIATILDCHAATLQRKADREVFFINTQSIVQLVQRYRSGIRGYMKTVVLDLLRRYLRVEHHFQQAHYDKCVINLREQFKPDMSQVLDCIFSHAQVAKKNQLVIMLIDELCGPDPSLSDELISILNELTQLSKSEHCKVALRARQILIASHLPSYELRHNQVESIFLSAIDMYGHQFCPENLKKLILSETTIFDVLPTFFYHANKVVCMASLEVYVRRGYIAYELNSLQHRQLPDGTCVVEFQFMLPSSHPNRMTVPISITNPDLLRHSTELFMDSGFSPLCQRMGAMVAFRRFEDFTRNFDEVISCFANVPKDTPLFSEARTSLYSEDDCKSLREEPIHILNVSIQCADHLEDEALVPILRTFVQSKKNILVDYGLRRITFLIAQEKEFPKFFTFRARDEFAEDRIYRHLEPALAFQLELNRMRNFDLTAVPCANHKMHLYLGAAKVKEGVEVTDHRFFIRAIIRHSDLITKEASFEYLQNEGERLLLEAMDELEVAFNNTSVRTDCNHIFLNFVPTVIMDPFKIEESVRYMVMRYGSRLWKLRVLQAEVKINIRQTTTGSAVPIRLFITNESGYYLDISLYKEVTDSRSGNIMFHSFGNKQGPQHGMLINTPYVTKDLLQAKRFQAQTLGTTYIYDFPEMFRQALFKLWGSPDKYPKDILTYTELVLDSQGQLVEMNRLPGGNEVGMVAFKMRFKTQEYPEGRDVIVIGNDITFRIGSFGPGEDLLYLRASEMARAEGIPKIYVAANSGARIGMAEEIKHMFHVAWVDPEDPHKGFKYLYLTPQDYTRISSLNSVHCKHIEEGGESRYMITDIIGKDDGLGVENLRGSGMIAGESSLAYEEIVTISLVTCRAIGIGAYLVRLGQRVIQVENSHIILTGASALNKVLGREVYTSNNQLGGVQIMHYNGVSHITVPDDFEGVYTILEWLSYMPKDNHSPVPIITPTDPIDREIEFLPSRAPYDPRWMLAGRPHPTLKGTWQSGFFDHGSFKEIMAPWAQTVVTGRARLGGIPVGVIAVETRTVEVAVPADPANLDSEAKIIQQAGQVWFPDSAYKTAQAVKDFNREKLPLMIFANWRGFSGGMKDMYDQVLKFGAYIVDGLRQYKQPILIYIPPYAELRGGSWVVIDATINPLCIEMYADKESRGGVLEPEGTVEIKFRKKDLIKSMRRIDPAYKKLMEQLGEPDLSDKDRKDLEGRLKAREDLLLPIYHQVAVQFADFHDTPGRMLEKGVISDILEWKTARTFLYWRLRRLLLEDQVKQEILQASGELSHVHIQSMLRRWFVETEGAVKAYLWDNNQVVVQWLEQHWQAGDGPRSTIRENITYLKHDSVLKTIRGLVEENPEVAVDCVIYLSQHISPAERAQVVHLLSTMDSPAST

As to `CN(CCF)CCC1CCN(c2cc(C(=O)NC[C@H]3CC[C@H](CNC(=O)OC(C)(C)C)CC3)c3ccccc3n2)CC1` [Example 245, tert-Butyl ({trans-4-[({[2-(4-(2-((2-fluoroethyl)(methyl)amino)ethyl}piperidin-1-yl)quinolin-4-yl]carbonyl}amino)methyl]cyclohexyl}methyl)carbamate], the IC50 in test [1] stood at 180 nM; in test [2] it was 1400 nM.

Regarding `CN(C)CCC1CCN(c2cc(C(=O)NC[C@H]3CC[C@H](CNC(=O)OC(C)(C)C)CC3)c3ccccc3n2)CC1` [Example 193, tert-butyl {[trans-4-({[(2-{4-[2-(dimethylamino)ethyl]piperidin-1-yl}quinolin-4-yl)carbonyl]amino}methyl)cyclohexyl]methyl}carbamate], the IC50 in test [1] turned out to be 100 nM; in test [2], 440 nM.

`CC(C)(C)OC(=O)NC[C@H]1CC[C@H](CNC(=O)c2cc(-c3ccc(OCC(N)=O)nc3)nc3ccccc23)CC1` [Example 178, tert-Butyl[(trans-4-{[({2-[6-(2-amino-2-oxoethoxy)pyridin-3-yl]quinolin-4-yl}carbonyl)amino]-methyl}cyclohexyl)methyl]carbamate]: the IC50 is 330 nM in test [1] and 1550 nM in test [2].

In the case of `CC(C)(C)OC(=O)NC[C@H]1CC[C@H](CNC(=O)c2cc(-c3cnn(CCO)c3)nc3ccccc23)CC1` [Example 243, tert-Butyl [(trans-4-{[({2-[1-(2-hydroxyethyl)-1H-pyrazol-4-yl]quinolin-4-yl}carbonyl)amino]methyl}cyclohexyl)methyl]carbamate], the IC50 in test [1] came out at 610 nM; in test [2] it was 1930 nM.

`CN(C)CCOc1ccc(-c2cc(C(=O)NC[C@H]3CC[C@H](CNC(=O)O[C@H]4CCOC4)CC3)c3ccccc3n2)cn1` [Example 196, (3S)-Tetrahydrofuran-3-yl {[trans-4-({[(2-{6-[2-(dimethylamino)ethoxy]pyridin-3-yl}quinolin-4-yl)carbonyl]amino}methyl)cyclohexyl]methyl}carbamate]: the IC50 in test [1] came to 920 nM; in test [2] it was 3480 nM.

With `CN(C)[C@H]1CCN(c2ccc(-c3cc(C(=O)NC[C@H]4CC[C@H](CNC(=O)OC(C)(C)C)CC4)c4ccccc4n3)cn2)C1` [Example 160, tert-Butyl{[trans-4-({[(2-{6-[(3S)-3-(dimethylamino)-pyrrolidin-1-yl]pyridin-3-yl}quinolin-4-yl)-carbonyl]amino}methyl)cyclohexyl]methyl}carbamate], the IC50 in test [1] worked out at 70 nM; in test [2] it was 220 nM.

With `CN1CCN(c2ccc(-c3cc(C(=O)NC[C@H]4CC[C@H](CNC(=O)OCc5nccs5)CC4)c4ccccc4n3)cn2)CC1` [Example 130, 1,3-Thiazol-2-ylmethyl-[(trans-4-{[({2-[6-(4-methylpiperazin-1-yl)pyridin-3-yl]quinolin-4-yl}carbonyl)amino]methyl}cyclohexyl)methyl]carbamate], the IC50 amounted to 440 nM in test [1] and 1950 nM in test [2].

As to `CN1CCN(c2ccc(-c3cc(C(=O)NC[C@H]4CC[C@H](CNC(=O)OCc5cnccn5)CC4)c4ccccc4n3)cn2)CC1` [Example 131, Pyrazin-2-ylmethyl-[(trans-4-{[({2-[6-(4-methylpiperazin-1-yl)pyridin-3-yl]quinolin-4-yl}carbonyl)amino]methyl}cyclohexyl)methyl]carbamate], the half-maximal inhibitory concentration (IC50) was 1590 nM in test [1] and 5250 nM in test [2].

As to `COC1CN(CCC2CCN(c3cc(C(=O)NC[C@H]4CC[C@H](CNC(=O)OC(C)(C)C)CC4)c4ccccc4n3)CC2)C1` [Example 229, tert-Butyl{[trans-4-({[(2-{4-[2-(3-methoxyazetidin-1-yl)ethyl]piperidin-1-yl}quinolin-4-yl)carbonyl]amino}-methyl)cyclohexyl]-methyl}carbamate], the IC50 in test [1] worked out at 110 nM; in test [2], 920 nM.

With `CC(C)(C)OC(=O)NC[C@H]1CC[C@H](CNC(=O)c2cc(-c3ccc(OCN4CCCC4=O)nc3)nc3ccccc23)CC1` [Example 177, tert-Butyl{[trans-4-({[(2-{6-[(2-oxopyrrolidin-1-yl)methoxy]pyridin-3-yl}quinolin-4-yl)carbonyl]amino}-methyl)cyclohexyl]-methyl}carbamate], the IC50 came out at 1710 nM in test [1] and 4310 nM in test [2].

Take `CC(C)(C)OC(=O)NC[C@H]1CC[C@H](CNC(=O)c2cc(-c3ccc(NCCOCCO)nc3)nc3ccccc23)CC1` [Example 155, tert-Butyl({trans-4-[({[2-(6-{[2-(2-hydroxyethoxy)ethyl]amino}pyridin-3-yl)quinolin-4-yl]-carbonyl}amino)-methyl]cyclohexyl}methyl)carbamate]: the IC50 was 410 nM in test [1] and 1100 nM in test [2].

Consider `CC(=O)NCCC1CCN(c2cc(C(=O)NC[C@H]3CC[C@H](CNC(=O)OC(C)(C)C)CC3)c3ccccc3n2)CC1` [Example 192, tert-Butyl [(trans-4-{[({2-[4-(2-acetamidoethyl)piperidin-1-yl]quinolin-4-yl}carbonyl)amino]methyl}cyclohexyl)methyl]carbamate], for which the IC50 in test [1] stood at 560 nM; in test [2], 1960 nM.

In the case of `CN1CCN(CCOc2ccc(-c3cc(C(=O)NC[C@H]4CC[C@H](CNC(=O)OC(C)(C)C)CC4)c4ccccc4n3)cn2)CC1` [Example 179, tert-Butyl{[trans-4-({[(2-{6-[2-(4-methylpiperazin-1-yl)ethoxy]pyridin-3-yl}quinolin-4-yl)carbonyl]amino}-methyl)cyclohexyl]-methyl}carbamate], the figures for the IC50 in test [1] and in test [2] were 550 nM and 1800 nM, respectively.

For `CC(C)(C)OC(=O)NC[C@H]1CC[C@H](CNC(=O)c2cc(-c3ccc(N4CCC(C(N)=O)CC4)nc3)nc3ccccc23)CC1` [Example 153, tert-Butyl[(trans-4-{[({2-[6-(4-carbamoylpiperidin-1-yl)pyridin-3-yl]-quinolin-4-yl}carbonyl)amino]-methyl}cyclohexyl)methyl]carbamate], the IC50 in test [1] was 130 nM; in test [2], 230 nM.

For `O=C(NC[C@H]1CC[C@H](CNC(=O)c2cc(-c3ccc(NCCO)nc3)nc3ccccc23)CC1)OC1CCOCC1` [Example 197, Tetrahydro-2H-pyran-4-yl {[trans-4-({[(2-{6-[(2-hydroxyethyl)amino]pyridin-3-yl}quinolin-4-yl)carbonyl]amino}methyl)cyclohexyl]methyl}carbamate], the IC50 in test [1] was determined as 1980 nM; in test [2], 9640 nM.

Usually IC50 stands for the point on the concentration scale where inhibition reaches its midpoint.
